The source of these data is patent publication US20240109891A1, “NOVEL SUBSTITUTED TRICYCLIC AZA-HETEROCYCLES AS SOS1 INHIBITORS” (Viva Star Biosciences (Suzhou) Co., Ltd., priority 2021, published 2024).

Each structure is given as a SMILES string.

The target of test [1] is T1, KRAS-WT and SOS1 proteins (Homo sapiens, UniProt Q07889).
T1 construct: purchased Cisbio 63ADK000CB15PEG
T1 sequence (Q07889 1-1333): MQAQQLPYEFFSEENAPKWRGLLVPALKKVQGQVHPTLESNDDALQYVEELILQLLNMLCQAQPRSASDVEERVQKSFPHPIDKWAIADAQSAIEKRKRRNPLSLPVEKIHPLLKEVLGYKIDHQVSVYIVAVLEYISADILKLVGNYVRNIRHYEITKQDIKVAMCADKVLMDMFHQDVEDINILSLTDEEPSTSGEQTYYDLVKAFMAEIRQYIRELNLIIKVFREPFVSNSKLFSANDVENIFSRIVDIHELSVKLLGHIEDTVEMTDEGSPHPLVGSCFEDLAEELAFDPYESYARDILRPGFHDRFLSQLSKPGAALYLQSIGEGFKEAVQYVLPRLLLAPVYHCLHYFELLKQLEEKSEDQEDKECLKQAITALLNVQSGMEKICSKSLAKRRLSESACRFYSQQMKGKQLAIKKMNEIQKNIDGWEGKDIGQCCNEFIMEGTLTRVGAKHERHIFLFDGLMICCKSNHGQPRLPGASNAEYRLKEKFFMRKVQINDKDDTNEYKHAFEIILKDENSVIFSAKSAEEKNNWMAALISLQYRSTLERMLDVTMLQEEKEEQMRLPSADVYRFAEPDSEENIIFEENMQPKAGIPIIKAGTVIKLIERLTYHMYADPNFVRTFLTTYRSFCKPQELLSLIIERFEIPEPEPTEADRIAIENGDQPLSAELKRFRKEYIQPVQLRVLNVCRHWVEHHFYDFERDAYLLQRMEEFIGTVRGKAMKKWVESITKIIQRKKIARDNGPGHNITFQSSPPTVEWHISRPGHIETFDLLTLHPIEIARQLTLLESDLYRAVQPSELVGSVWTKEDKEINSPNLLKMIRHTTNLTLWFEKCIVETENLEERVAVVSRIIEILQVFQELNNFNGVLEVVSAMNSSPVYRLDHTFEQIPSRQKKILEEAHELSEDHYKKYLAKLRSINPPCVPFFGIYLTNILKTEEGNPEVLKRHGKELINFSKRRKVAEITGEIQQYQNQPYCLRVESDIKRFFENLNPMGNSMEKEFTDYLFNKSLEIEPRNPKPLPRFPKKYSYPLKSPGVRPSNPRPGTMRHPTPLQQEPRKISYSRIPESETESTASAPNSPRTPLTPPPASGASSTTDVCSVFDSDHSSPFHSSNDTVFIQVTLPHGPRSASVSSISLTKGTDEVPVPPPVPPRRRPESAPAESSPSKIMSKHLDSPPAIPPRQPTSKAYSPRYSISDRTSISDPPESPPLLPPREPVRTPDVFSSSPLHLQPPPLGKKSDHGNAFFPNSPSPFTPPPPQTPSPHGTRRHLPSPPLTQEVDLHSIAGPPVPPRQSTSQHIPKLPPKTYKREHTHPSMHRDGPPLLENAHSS
Put plainly: KRAS-WT/SOS1 binding assay (HTRF). As to conditions: Tag1-SOS1 / Tag2-KRAS-WT, 10 μM GTP, read-out: Activity Data in Kras: SOS1 Assay, Wild Type. As for the experimental part: (§1) KRAS-WT (or G12C/G12D/G12V)/SOS1 Binding Assay
(§2) Low IC50 values are indicative of high potency of the SOS1 inhibitor compounds in this assay setting.
(§3) The KRAS-WT (or G12C/G12D/G12V)/SOS1 binding assay is performed using an assay kit (Cisbio, Cat #63ADK000CB15PEG or 63ADK000CB16PEG/63ADK000CB17PEG/63ADK000CB18PEG) according to the procedure recommended by the manufacturer. • 1) Thaw and prepare the working solution of Tag1-SOS1 protein and Tag2-KRAS-WT (or G12C/G12D/G12V) protein with final concentration of 10 μM GTP (Sigma, Cat #V900868). • 2) Thaw and prepare the working solution of anti-Tag1-Tb^3+ anti-Tag2-XL665. • 3) Dispense 2 μL of serially diluted compound, 4 μL of Tag1-SOS1 protein and 4 μL of Tag2-KRAS-WT (or G12C/G12D/G12V) protein with GTP into a ProxiPlate-384 Plus, white 384-shallow well microplate (PerkinElmer, Cat #6008280). • 4) Incubate the plate for 15 minutes at room temperature. • 5) Dispense 10 μL of pre-mixed anti-Tag1-Tb^3+ and anti-Tag2-XL665 into the plate. • 6) Seal the plate and incubate for 2 hours at room temperature. • 7) Remove the plate sealer and read on PHERAstar FS (BMG LABTECH, PHERAstar FS). • 8) Calculate the ratio of the acceptor and donor emission signals for each individual well using the following equation.
(§4) [formula] • 9) IC50 values are fitted and calculated by HTRF signal values and log of compound concentrations to nonlinear regression [Log (inhibitor) vs. Response−Variable Slope (four parameters)] using the GraphPad Prism 8.0.
A general note: TR-FRET usually uses a lanthanide donor and a delayed reading to cut background.

For test [2], the target named is T2, KRAS G12D and SOS1 proteins (Homo sapiens, UniProt Q07889).
T2 construct: purchased Cisbio 63ADK000CB17PEG
T2 sequence (Q07889 1-1333): T1 sequence (Q07889 1-1333)
Put plainly: KRAS-G12D/SOS1 binding assay (HTRF). As to conditions: Tag1-SOS1 / Tag2-KRAS G12D, 10 μM GTP. As for the experimental part:
as §1, §2, §3, §4

Turning to `C[C@@H](Nc1nc2ccnn2c2cc(=O)n(C3(C)CC3)cc12)c1cccc2c1CCC2(F)F` [Example 62, (R)-5-((1-(1,1-difluoro-2,3-dihydro-1H-inden-4-yl)ethyl)amino)-7-(1-methylcyclopropyl)pyrazolo[1,5-a]pyrido[3,4-e]pyrimidin-8(7H)-one], the IC50 in test [1] and in test [2] was less than 100 nM each time.

Take `Cc1nc(N[C@H](C)c2cccc(C(F)(F)CO)c2)c2cc(N3CC[C@@H](O)C3)c3c(cnn3C)c2n1` [Example 44, (3R)-1-(4-{[(1R)-1-[3-(1,1-difluoro-2-hydroxyethyl)phenyl]ethyl]amino}-2,7-dimethyl-7H-pyrazolo[3,4-h]quinazolin-6-yl)pyrrolidin-3-ol]: the IC50 in test [1] and in test [2] was less than 100 nM throughout.

Turning to `COCC(F)(F)c1cccc([C@@H](C)Nc2nc(C)nc3c2cc(-c2ccc(=O)n(C)c2)c2c3cnn2C)c1` [Example 31, (R)-5-(4-((1-(3-(1,1-difluoro-2-methoxyethyl)phenyl)ethyl)amino)-2,7-dimethyl-7H-pyrazolo[3,4-h]quinazolin-6-yl)-1-methylpyridin-2(1H)-one], the IC50 in test [1] and in test [2] was less than 100 nM in each case.

Turning to `Cc1nc(N[C@H](C)c2cccc3c2CCC3(F)F)c2cc(O[C@H]3CCOC3)c3c(cnn3C)c2n1` [Example 36, N-((R)-1-(1,1-difluoro-2,3-dihydro-1H-inden-4-yl)ethyl)-2,7-dimethyl-6-(((S)-tetrahydrofuran-3-yl)oxy)-7H-pyrazolo[3,4-h]quinazolin-4-amine], the IC50 in test [1] and in test [2] was less than 100 nM each time.

Turning to `C[C@@H](Nc1nc2ccnn2c2cc(=O)n([C@H]3CCOC3)cc12)c1cc(N)cc(C(F)(F)F)c1` [Example 70, 5-(((R)-1-(3-amino-5-(trifluoromethyl)phenyl)ethyl)amino)-7-((S)-tetrahydrofuran-3-yl)pyrazolo[1,5-a]pyrido[3,4-e]pyrimidin-8(7H)-one], the IC50 in test [1] and in test [2] was less than 100 nM each time.

As for `C[C@@H](Nc1nc2ccnn2c2cc(=O)n(C3CCN(S(C)(=O)=O)CC3)cc12)c1cccc(C(F)(F)CO)c1` [Example 67, (R)-5-((1-(3-(1,1-difluoro-2-hydroxyethyl)phenyl)ethyl)amino)-7-(1-(methylsulfonyl)piperidin-4-yl)pyrazolo[1,5-a]pyrido[3,4-e]pyrimidin-8(7H)-one], the IC50 is less than 100 nM in test [1] and 100 to 500 nM in test [2].

As to `Cc1nc(N[C@H](C)c2cccc3c2CCC3(F)F)c2cc(-c3ccc(=O)n(C)c3)c3c(cnn3C)c2n1` [Example 25, (R)-5-(4-((1-(1,1-difluoro-2,3-dihydro-1H-inden-4-yl)ethyl)amino)-2,7-dimethyl-7H-pyrazolo[3,4-h]quinazolin-6-yl)-1-methylpyridin-2(1H)-one], the IC50 in test [1] and in test [2] was less than 100 nM throughout.

With `C[C@@H](Nc1nc2ccnn2c2cc(=O)n([C@H]3CCOC3)cc12)c1cccc(C(F)(F)CO)c1` [Example 72, 5-(((R)-1-(3-(1,1-difluoro-2-hydroxyethyl)phenyl)ethyl)amino)-7-((S)-tetrahydrofuran-3-yl)pyrazolo[1,5-a]pyrido[3,4-e]pyrimidin-8(7H)-one], the IC50 in test [1] and in test [2] was less than 100 nM throughout.

As to `Cc1nc(N[C@H](C)c2cccc(C(F)(F)CO)c2)c2cc(-c3ccc(=O)n(C)c3)c3c(cnn3C)c2n1` [Example 24, (R)-5-(4-((1-(3-(1,1-difluoro-2-hydroxyethyl)phenyl)ethyl)amino)-2,7-dimethyl-7H-pyrazolo[3,4-h]quinazolin-6-yl)-1-methylpyridin-2(1H)-one], the IC50 in test [1] and in test [2] was less than 100 nM in each case.

For `C[C@@H](Nc1nc2ccnn2c2cc(=O)n(C3CC(F)(F)C3)cc12)c1cc(F)cc(C(F)(F)CO)c1` [Example 73, (R)-5-((1-(3-(1,1-difluoro-2-hydroxyethyl)-5-fluorophenyl)ethyl)amino)-7-(3,3-difluorocyclobutyl)pyrazolo[1,5-a]pyrido[3,4-e]pyrimidin-8(7H)-one], the IC50 in test [1] and in test [2] was less than 100 nM throughout.

As for `COCC(=O)N1CCC(c2cc3c(N[C@H](C)c4cccc(C(F)(F)CO)c4)nc(C)nc3n3cnnc23)CC1` [Example 11, (R)-1-(4-(4-((1-(3-(1,1-difluoro-2-hydroxyethyl)phenyl)ethyl)amino)-2-methyl-[1,2,4]triazolo[4′,3′:1,6]pyrido[2,3-d]pyrimidin-6-yl)piperidin-1-yl)-2-methoxyethan-1-one], the IC50 in test [1] and in test [2] was less than 100 nM in each case.

Regarding `COc1cc2c(cc1O[C@H]1CCOC1)c(N[C@H](C)c1cccc(C(F)(F)F)c1)nc1cncn12` [Example 56, 8-methoxy-7-(((S)-tetrahydrofuran-3-yl)oxy)-N—((R)-1-(3-(trifluoromethyl)phenyl)ethyl)imidazo[1,5-a]quinazolin-5-amine], the IC50 in test [1] and in test [2] was 500 to 5000 nM each time.

On to `CC(=O)N1CCC(c2cc3c(N[C@H](C)c4cc(C(C)(C)O)cc(C(F)(F)F)c4)nc(C)nc3n3cnnc23)CC1` [Example 13, (R)-1-(4-(4-((1-(3-(2-hydroxypropan-2-yl)-5-(trifluoromethyl)phenyl)ethyl)amino)-2-methyl-[1,2,4]triazolo[4′,3′:1,6]pyrido[2,3-d]pyrimidin-6-yl)piperidin-1-yl)ethan-1-one], for which the IC50 in test [1] and in test [2] was greater than 5000 nM in each case.

On to `CNCc1ccccc1-c1ccc([C@@H](C)Nc2nc3ccnn3c3cc(=O)n(C4(C)CC4)cc23)s1` [Example 74, 8-{[(1R)-1-(5-{2-[(methylamino)methyl]phenyl}thiophen-2-yl)ethyl]amino}-11-(1-methylcyclopropyl)-2,3,7,11-tetraazatricyclo[7.4.0.0^{2,6}]trideca-1(13),3,5,7,9-pentaen-12-one], for which the IC50 in test [1] and in test [2] was less than 100 nM in each case.

For the molecule `Cc1nc(N[C@H](C)c2cccc(C(F)(F)CO)c2)c2cc(C3CCNCC3)c3nncn3c2n1` [Example 14, (R)-2,2-difluoro-2-(3-(1-((2-methyl-6-(piperidin-4-yl)-[1,2,4]triazolo[4′,3′:1,6]pyrido[2,3-d]pyrimidin-4-yl)amino)ethyl)phenyl)ethan-1-ol], the IC50 in test [1] and in test [2] was less than 100 nM each time.

On to `Cc1nc(N[C@H](C)c2cccc(C(F)(F)CO)c2)c2cc([C@H]3CC[C@@H](O)CC3)c3nncn3c2n1` [Example 15, Cis-(R)-4-(4-((1-(3-(1,1-difluoro-2-hydroxyethyl)phenyl)ethyl)amino)-2-methyl-[1,2,4]triazolo[4′,3′:1,6]pyrido[2,3-d]pyrimidin-6-yl)cyclohexan-1-ol], for which the IC50 in test [1] and in test [2] was less than 100 nM in each case.
